Values of other authors in patent US20240261298A1, “METHODS OF TREATING DEPRESSION AND ANXIETY” (Woolsey Pharmaceuticals, Inc., priority 2021, published 2024).
Counter-ions that a name gives are not always drawn.

Experiments:
adult mice = conditions: exposure to fasudil
[1] = 1 hydroxy (M3) metabolite, in vivo

SMILES | anxiety-like behaviors (adult mice) | half-life [1]
O=S(=O)(c1cccc2cnccc12)N1CCCNCC1 [Fasudil, Hexahydro-1-(5-isoquinolinesulfonyl)-1H-1,4-diazepine monohydrochloride hemihydrate] | induces anxiety-like behaviors | –
O=S(=O)(c1cccc2c(O)nccc12)N1CCCNCC1 [M3] | – | about 8 hours
